Assay results reported in publication PMC8224453, “A New PqsR Inverse Agonist Potentiates Tobramycin Efficacy to Eradicate Pseudomonas aeruginosa Biofilms” (Advanced Science, 2021).
≈ marks a conversion by molar mass, not a printed value. Read-outs that look alike come from different tables or passages of the source.

Legend:
[1] = biological target: T1, PqsR (Pseudomonas aeruginosa, UniProt Q9I4X0); test: PqsR β-galactosidase reporter-gene assay in E. coli DH5α; type: cell-based; settings: for IC50 PqsR: E. coli reporter-gene assay, result in words
T1 construct: which expresses PqsR and the β-galactosidase LacZ under the control of the pqsA promoter; expressed in transfected cells; host or cells: E. coli DH5α carrying plasmid pEAL08-2
T1 sequence (Q9I4X0 whole entry): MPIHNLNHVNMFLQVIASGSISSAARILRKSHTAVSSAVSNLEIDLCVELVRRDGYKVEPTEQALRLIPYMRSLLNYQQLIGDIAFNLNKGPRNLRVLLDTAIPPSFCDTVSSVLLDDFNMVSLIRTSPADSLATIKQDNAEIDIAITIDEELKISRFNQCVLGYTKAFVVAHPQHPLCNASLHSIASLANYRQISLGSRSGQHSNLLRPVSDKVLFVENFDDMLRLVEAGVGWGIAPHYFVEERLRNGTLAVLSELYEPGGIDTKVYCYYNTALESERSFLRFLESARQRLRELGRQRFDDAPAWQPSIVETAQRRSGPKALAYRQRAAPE
Procedure: 3. Primary Activity Assays
The inverse agonistic/antagonistic activity of potential PqsR ligands was evaluated in a β-galactosidase reporter gene assay in E. coli as previously described.[3] In short, test compounds were co-incubated with E. coli DH5α cells containing the plasmid pEAL08-2,[4] which expresses PqsR and the β-galactosidase LacZ under the control of the pqsA promoter.
The inverse agonistic/antagonistic activity of compounds was measured in the presence of 50 nM PQS. After incubation, galactosidase activity was quantified photometrically and expressed as ratio of controls. The given IC50 values represent the mean of at least two independent experiments using at least eight different concentrations of test compound with n = 4. Non-linear regression analysis was performed using OriginPro 2020. […]

[2] = system: pyocyanin production in PA14 wt; test: Pyocyanin assay in PA14 wt; type: cell-based; settings: Pseudomonas aeruginosa, PA14, read-out: IC50 pyocyanin
Procedure: The pyocyanin inhibitory effect of the synthesized compounds and the compound (4) loaded SqNPs on PA14 wt were investigated by pyocyanin assay as described in previous work.[2,5] Briefly, PA14 wt was grown in PPGAS medium, overnight, at 37 °C, shaking at 200 rpm. The bacterial suspension was then centrifuged at 7.450 g, washed twice and diluted to a final OD600 (absorption at 600 nm) of 0.02 (2∙10^7 CFU/mL) in fresh PPGAS. 1.5 mL of the […]
(1 picture or pasted object on this page, not shown here) […]
culture was distributed in each well of the 24 well-plate. The free synthesized QSI prepared in DMSO, compound (4) loaded SqNPs were supplemented to bacteria-containing wells (1:100 dilutions). PA14 wt treated with either PBS or drug-free SqNPs (200 μg/mL) served as controls. Following 16 h incubation under aerobic conditions, pyocyanin in 900 μL of bacteria culture was extracted with chloroform and re-extracted with 0.2 M HCl. Pyocyanin production level was measured as the absorption at 520 nm, which was normalized to cell growth measured as OD600. 0.2 M HCl served as blank samples. Three independent experiments were conducted in triplicate. Non-linear regression analysis was performed using […]
(4) loaded SqNPs on PA14 wt. The pyocyanin inhibitory efficacy was improved by a factor of […]
It is noted that as reported in our prior
Figure S2. The production of pyocyanin levels compared to control PA14 wide type (wt) of the samples treated with 200 μg/mL drug free SqNPs. Three independent experiments were conducted in triplicate. […]
(also on this page, place not known: ( 4) -containing -free bacteria re -extracted compo und ( 4) (IC 50 nM ) (IC 50 nM ). drug P A14 5,6,7,8 -tetradeutero-2-heptyl-4(1H)-quinolone standa rd -40 -20 0 20 40 60 80 100 120 0.005 0.05 0.5 pyo production inhibition [%] Compound concentration loaded SqNPs [µM] IC50 = 100 ± 0.018 [nM])

[3] = biological target: T1, PqsR; settings: read-out: IC50 (PqsR); Figure 1B, earlier hits; cited from earlier work
[4] = Metabolic stability half-life (matrix not given); type: in vitro ADME; settings: matrix not stated; read-out: metabolic stability half-life t 1/2
Procedure: First, we evaluated the most promising compounds considering in vitro pharmacokinetic properties such as solubility and metabolic stability. […] Compounds 4 and 19 were moderately stable with half‐lives of 10 and 19 min, respectively.

[5] = Kinetic turbidimetric solubility assay; type: physicochemical; settings: PBS, aqueous buffer, kinetic from dmso stock, read-out: Kinetic solubility S kin
Procedure: 5.4. Kinetic Turbidimetric Solubility Assay
The desired compounds were sequentially diluted in DMSO in a 96-well plate. A 3 µL of each well were transferred into another three 96-well plates, followed by addition of 147 µL of PBS. Plates were shaken for 5 min at 600 rpm at room temperature (r.t.), and the absorbance at 620 nm was measured. Absorbance values were normalized by blank […]
subtraction and plotted using GraphPad Prism 8.4.2 (GraphPad Software, San Diego, CA, […]

FC(F)(F)c1cc(NCc2cn(-c3ccc(Cl)cc3)nn2)ccn1 [Compound 9]
IC50 [1]: 79 nM
IC50 [2]: 7730 nM

Fc1ccc(-n2cc(CNc3ccnc(C(F)(F)F)c3)nn2)cc1 [Compound 3]
IC50 [1]: 196 nM
IC50 [2]: > 5000 nM

Fc1cccc(-n2cc(CNc3ccnc(C(F)(F)F)c3)nn2)c1 [Compound 5]
IC50 PqsR [1]: inactive
IC50 [2]: > 5000 nM

Nc1cccc(C(F)(F)F)n1 [Compound 1]
IC50 [3]: 33100 nM

FC(F)(F)Oc1ccc(-n2cc(CNc3ccnc(C(F)(F)F)c3)nn2)cc1Cl [Compound 18]
half-life [4]: 55 min
solubility kinetic at 5 min [5]: 31.3 µM (≈ 13.7 µg/mL)
IC50 [1]: 15 nM
IC50 [2]: 438 nM

FC(F)(F)Oc1ccc(-n2cc(CNc3ccnc(C(F)(F)F)c3)nn2)cc1 [Compound 12]
IC50 [1]: 30 nM
IC50 [2]: 1180 nM

Nc1cc(NCc2cn(-c3ccc(Oc4ccccc4)cc3)nn2)cc(C(F)(F)F)n1 [Compound 20]
solubility kinetic at 5 min [5]: 13 µM (≈ 5.54 µg/mL)
IC50 [2]: 351 nM

FC(F)(F)c1cc(NCc2cn(-c3cccc(Cl)c3)nn2)ccn1 [Compound 8]
IC50 [1]: 123 nM
IC50 [2]: > 2500 nM

N#Cc1ccc(-n2cc(CNc3ccnc(C(F)(F)F)c3)nn2)cc1 [Compound 14]
IC50 [1]: 655 nM
IC50 [2]: > 10000 nM

FC(F)(F)c1ccc(-n2cc(CNc3ccnc(C(F)(F)F)c3)nn2)cc1 [Compound 13]
IC50 [1]: 129 nM
IC50 [2]: > 5000 nM

Oc1ccc(-n2cc(CNc3ccnc(C(F)(F)F)c3)nn2)cc1 [Compound 10]
IC50 PqsR [1]: inactive ^a)

FC(F)(F)c1cc(NCc2cn(-c3ccc(Oc4ccccc4)c(Cl)c3)nn2)ccn1 [Compound 19]
half-life [4]: 19 min
IC50 [1]: 12 nM
IC50 [2]: 181 nM

FC(F)(F)c1cc(NCc2cn(-c3ccc(Cl)c(Cl)c3)nn2)ccn1 [Compound 16]
IC50 [1]: 24 nM
IC50 [2]: 354 nM

FC(F)(F)c1cc(NCc2cn(-c3ccc(Nc4ccccc4)cc3)nn2)ccn1 [Compound 15]
IC50 [1]: 31 nM
IC50 [2]: 1060 nM

FC(F)(F)c1cc(NCc2cn(-c3ccccc3Cl)nn2)ccn1 [Compound 7]
IC50 PqsR [1]: inactive
IC50 [2]: > 5000 nM

Fc1ccccc1-n1cc(CNc2ccnc(C(F)(F)F)c2)nn1 [Compound 6]
IC50 PqsR [1]: inactive
IC50 [2]: > 10000 nM

COc1ccc(-n2cc(CNc3ccnc(C(F)(F)F)c3)nn2)cc1 [Compound 11]
IC50 [1]: 81 nM
IC50 [2]: 2500 nM
